{
  "source": "patent US20230159511A1",
  "about": "“TETRAHYDROISOQUINOLINE COMPOUNDS AS NRF2 ACTIVATORS” (C4X Discovery Limited, priority 2020, published 2023)",
  "data": [
    {"target": "T1, human KEAP1 (N-term, residues 321-609) (Homo sapiens, UniProt Q14145)", "T1 construct": "human KEAP1 (N-term, residues 321-609)", "T1 sequence (Q14145 321-609)": "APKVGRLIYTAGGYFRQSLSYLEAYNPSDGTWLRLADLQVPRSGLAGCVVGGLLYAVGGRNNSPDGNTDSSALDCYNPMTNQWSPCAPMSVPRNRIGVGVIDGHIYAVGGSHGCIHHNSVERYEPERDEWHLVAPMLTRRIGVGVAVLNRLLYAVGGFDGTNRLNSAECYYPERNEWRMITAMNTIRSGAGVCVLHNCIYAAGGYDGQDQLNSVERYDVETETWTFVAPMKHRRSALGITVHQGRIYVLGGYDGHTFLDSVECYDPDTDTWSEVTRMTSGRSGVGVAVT", "assay": "KEAP1 Kelch Fluorescence Polarization (FP) Assay", "format": "binding", "conditions": "inhibition of Kelch domain-NRF2 interaction; 2 nM FITC-labelled NRF2 peptide, 25 nM KEAP1, 1 h room temperature; compounds below 10 nM cannot be differentiated", "description": "KEAP1 Kelch Fluorescence Polarization (FP) Assay Method\nInhibition of the Kelch domain-NRF2 interaction was determined using a fluorescence polarization-based competition assay in a black 384-well microplate. Compounds were tested at a starting concentration of 10 μM serially diluted 1:3 to generate a 12-point dose response curve on the Biomek FX robot. Each well contained 2 nM FITC-labelled NRF2 peptide (FITC-LDEETGEFL-NH2) and 25 nM human KEAP1 (N-term, residues 321-609) enzyme in a final volume of 20 μL of assay buffer (50 mM Tris-HCl pH 8.0, 100 mM NaCl, 5 mM MgCl2, 0.005% Tween-20, 0.005% BSA, 0.5% DMSO) in the presence of varying concentrations of test compound. Unlabelled peptide (LDEETGEFL-NH2) at 50 μM (negative control) and 0.5% DMSO (positive control) was used to determine the assay window.\nAfter 1 h at room temperature, fluorescence polarization (excitation 470 nm/emission 530 nm) was measured using an Envision plate reader. IC50 values were determined by fitting the data to a four parameter logistic fit using XLfit or XE Runner within ActivityBase. The assay limit is such that compounds below 10 nM cannot be differentiated.", "units": {"IC50": "nM"}, "values": [
      {"smiles": "CNC(=O)CCCOc1cccc2c1[C@@H](CN1C(=O)c3ccccc3C1=O)N(C(=O)[C@@H]1CCCC[C@@H]1C(=O)NC)CC2", "note": "[Example 2, (1S,2R)-2-((S)-1-((1,3-dioxoisoindolin-2-yl)methyl)-8-(4-(methylamino)-4-oxobutoxy)-1,2,3,4-tetrahydroisoguinoline-2-carbonyl)-N-methylcyclohexane-1-carboxamide]", "IC50": 339},
      {"smiles": "CNC(=O)[C@H]1CCCC[C@H]1C(=O)N1CCc2cccc(OCCNC(=O)c3noc(C)c3C)c2[C@H]1CN1C(=O)c2ccccc2C1=O", "note": "[Example 4, N-(2-(((S)-1-((1,3-dioxoisoindolin-2-yl)methyl)-2-((1R,2S)-2-(methylcarbamoyl)cyclo-hexane-1-carbonyl)-1,2,3,4-tetrahydroisoquinolin-8-yl)oxy)ethyl)-4,5-dimethylisoxazole-3-carboxamide]", "IC50": 161},
      {"smiles": "CNC(=O)[C@H]1CCCC[C@H]1C(=O)N1CCc2cccc(O[C@H]3CCN(C(C)=O)C3)c2[C@H]1CN1C(=O)c2ccccc2C1=O", "note": "[Example 5, (1S,2R)-2-((S)-8-(((S)-1-acetylpyrrolidin-3-yl)oxy)-1-((1,3-dioxoisoindolin-2-yl)methyl)-1,2,3,4-tetrahydroisoquinoline-2-carbonyl)-N-methylcyclohexane-1-carboxamide]", "IC50": 147},
      {"smiles": "Cc1cc(C(=O)NCCOc2cccc3c2[C@@H](CN2C(=O)c4ccccc4C2=O)N(C(=O)[C@@H]2CCCC[C@@H]2C(=O)NC2CC2)CC3)no1", "note": "[Example 7, N-(2-(((S)-2-((1R,2S)-2-(cyclopropylcarbamoyl)cyclohexane-1-carbonyl)-1-((1,3-dioxoisoindolin-2-yl)methyl)-1,2,3,4-tetrahydroisoquinolin-8-yl)oxy)ethyl)-5-methylisoxazole-3-carboxamide]", "IC50": 196},
      {"smiles": "Cc1cc(C(=O)NCCOc2cccc3c2[C@@H](CN2C(=O)c4ccccc4C2=O)N(C(=O)[C@@H]2CCCC[C@@H]2C(=O)N2CC(O)C2)CC3)no1", "note": "[Example 8, N-(2-(((S)-1-((1,3-dioxoisoindolin-2-yl)methyl)-2-((1R,2S)-2-(3-hydroxyazetidine-1-carbonyl)cyclohexane-1-carbonyl)-1,2,3,4-tetrahydroisoquinolin-8-yl)oxy)ethyl)-5-methylisoxazole-3-carboxamide]", "IC50": 1280},
      {"smiles": "Cc1cc(C(=O)NCCOc2cccc3c2[C@@H](CN2C(=O)c4ccccc4C2=O)N(C(=O)[C@@H]2CCCC[C@@H]2C(=O)NC2CCC2)CC3)no1", "note": "[Example 9, N-(2-(((S)-2-((1R,2S)-2-(cyclobutylcarbamoyl)cyclo-hexane-1-carbonyl)-1-((1,3-dioxoisoindolin-2-yl)methyl)-1,2,3,4-tetrahydroisoquinolin-8-yl)oxy)ethyl)-5-methylisoxazole-3-carboxamide]", "IC50": 119},
      {"smiles": "CNC(=O)[C@H]1CCCC[C@H]1C(=O)N1CCc2cccc(OCCNC(=O)c3nc4ccccc4o3)c2[C@H]1CN1C(=O)c2ccccc2C1=O", "note": "[Example 11, N-(2-(((S)-1-((1,3-dioxoisoindolin-2-yl)methyl)-2-((1R,2S)-2-(methylcarbamoyl)cyclo-hexane-1-carbonyl)-1,2,3,4-tetrahydroisoquinolin-8-yl)oxy)ethyl)benzo[d] oxazole-2-carboxamide]", "IC50": 37},
      {"smiles": "CNC(=O)[C@H]1CCCC[C@H]1C(=O)N1CCc2cccc(OCCNC(=O)c3noc4ccccc34)c2[C@H]1CN1C(=O)c2ccccc2C1=O", "note": "[Example 12, N-(2-(((S)-1-((1,3-dioxoisoindolin-2-yl)methyl)-2-((1R,2S)-2-(methylcarbamoyl)cyclo-hexane-1-carbonyl)-1,2,3,4-tetrahydroisoquinolin-8-yl)oxy)ethyl)benzo[d] isoxazole-3-carboxamide]", "IC50": 56},
      {"smiles": "CNC(=O)[C@H]1CCCC[C@H]1C(=O)N1CCc2cccc(OCCNS(=O)(=O)c3cnoc3C)c2[C@H]1CN1C(=O)c2ccccc2C1=O", "note": "[Example 13, (1S,2R)-2-((S)-1-((1,3-dioxoisoindolin-2-yl)methyl)-8-(2-((5-methylisoxazole)-4-sulfonamido)ethoxy)-1,2,3,4-tetrahydroisoquinoline-2-carbonyl)-N-methylcyclohexane-1-carboxamide]", "IC50": 169},
      {"smiles": "CNC(=O)[C@H]1CCCC[C@H]1C(=O)N1CCc2cccc(O[C@H]3CCN(C(=O)c4cncnc4)C3)c2[C@H]1CN1C(=O)c2ccccc2C1=O", "note": "[Example 14, (1S,2R)-2-((S)-1-((1,3-dioxoisoindolin-2-yl)methyl)-8-(((S)-1-(pyrimidine-5-carbonyl)pyrrolidin-3-yl)oxy)-1,2,3,4-tetrahydroisoquinoline-2-carbonyl)-N-methylcyclohexane-1-carboxamide]", "IC50": 183},
      {"smiles": "CNC(=O)[C@H]1CCCC[C@H]1C(=O)N1CCc2cccc(O[C@H]3CCN(C(=O)c4cccnc4)C3)c2[C@H]1CN1C(=O)c2ccccc2C1=O", "note": "[Example 15, (1S,2R)-2-((S)-1-((1,3-dioxoisoindolin-2-yl)methyl)-8-(((S)-1-nicotinoylpyrrolidin-3-yl)oxy)-1,2,3,4-tetrahydroisoquinoline-2-carbonyl)-N-methylcyclohexane-1-carboxamide]", "IC50": 93},
      {"smiles": "CNC(=O)[C@H]1CCCC[C@H]1C(=O)N1CCc2cccc(O[C@H]3CCN(S(=O)(=O)c4cnoc4C)C3)c2[C@H]1CN1C(=O)c2ccccc2C1=O", "note": "[Example 16, (1S,2R)-2-((S)-1-((1,3-dioxoisoindolin-2-yl)methyl)-8-(((S)-1-((5-methylisoxazol-4-yl)sulfonyl)pyrrolidin-3-yl)oxy)-1,2,3,4-tetrahydroisoquinoline-2-carbonyl)-N-methylcyclohexane-1-carboxamide]", "IC50": 366},
      {"smiles": "CNC(=O)[C@H]1CCCC[C@H]1C(=O)N1CCc2cccc(OCCNC(=O)c3nccs3)c2[C@H]1CN1C(=O)c2ccccc2C1=O", "note": "[Example 18, N-(2-(((S)-1-((1,3-dioxoisoindolin-2-yl)methyl)-2-((1R,2S)-2-(methylcarbamoyl)cyclo-hexane-1-carbonyl)-1,2,3,4-tetrahydroisoquinolin-8-yl)oxy)ethyl)thiazole-2-carboxamide]", "IC50": 119},
      {"smiles": "CNC(=O)[C@H]1CCCC[C@H]1C(=O)N1CCc2cccc(O[C@H]3CCN(C(=O)C4CC4)C3)c2[C@H]1CN1C(=O)c2ccccc2C1=O", "note": "[Example 19, (1S,2R)-2-((S)-8-(((S)-1-(cyclopropanecarbonyl)pyrrolidin-3-yl)oxy)-1-((1,3-dioxoisoindolin-2-yl)methyl)-1,2,3,4-tetrahydroisoquinoline-2-carbonyl)-N-methylcyclohexane-1-carboxamide]", "IC50": 196},
      {"smiles": "CNC(=O)[C@H]1CCCC[C@H]1C(=O)N1CCc2cccc(OCc3cnco3)c2[C@H]1CN1C(=O)c2ccccc2C1=O", "note": "[Example 21, (1S,2R)-2-((S)-1-((1,3-dioxoisoindolin-2-yl)methyl)-8-(oxazol-5-ylmethoxy)-1,2,3,4-tetrahydroisoquinoline-2-carbonyl)-N-methylcyclohexane-1-carboxamide]", "IC50": 2250},
      {"smiles": "CNC(=O)[C@H]1CCCC[C@H]1C(=O)N1CCc2cccc(O[C@H]3CCN(C(=O)c4cnc(C)s4)C3)c2[C@H]1CN1C(=O)c2ccccc2C1=O", "note": "[Example 22, (1S,2R)-2-((S)-1-((1,3-dioxoisoindolin-2-yl)methyl)-8-(((S)-1-(2-methylthiazole-5-carbonyl)pyrrolidin-3-yl)oxy)-1,2,3,4-tetrahydroisoquinoline-2-carbonyl)-N-methylcyclohexane-1-carboxamide]", "IC50": 32},
      {"smiles": "CNC(=O)[C@H]1CCCC[C@H]1C(=O)N1CCc2cccc(O[C@H]3CCN(C(=O)c4sc(C)nc4C)C3)c2[C@H]1CN1C(=O)c2ccccc2C1=O", "note": "[Example 23, (1S,2R)-2-((S)-8-(((S)-1-(2,4-dimethylthiazole-5-carbonyl)pyrrolidin-3-yl)oxy)-1-((1,3-dioxoisoindolin-2-yl)methyl)-1,2,3,4-tetrahydroisoquinoline-2-carbonyl)-N-methylcyclohexane-1-carboxamide]", "IC50": 606},
      {"smiles": "CNC(=O)[C@H]1CCCC[C@H]1C(=O)N1CCc2cccc(O[C@H]3CCN(C(=O)c4csc(C)n4)C3)c2[C@H]1CN1C(=O)c2ccccc2C1=O", "note": "[Example 24, (1S,2R)-2-((S)-1-((1,3-dioxoisoindolin-2-yl)methyl)-8-(((S)-1-(2-methylthiazole-4-carbonyl)pyrrolidin-3-yl)oxy)-1,2,3,4-tetrahydroisoquinoline-2-carbonyl)-N-methylcyclohexane-1-carboxamide]", "IC50": 294},
      {"smiles": "CNC(=O)C[C@@H](C)C(=O)N1CCc2cccc(O[C@H]3CCN(C(=O)c4cncs4)C3)c2[C@H]1CN1C(=O)c2ccccc2C1=O", "note": "[Example 25, (R)-4-((S)-1-((1,3-dioxoisoindolin-2-yl)methyl)-8-(((S)-1-(thiazole-5-carbonyl)pyrrolidin-3-yl)oxy)-3,4-dihydroisoquinolin-2(1H)-yl)-N,3-dimethyl-4-oxobutanamide]", "IC50": 292},
      {"smiles": "CNC(=O)[C@H]1CCCC[C@H]1C(=O)N1CCc2cccc(O[C@H]3CCN(C(=O)c4cncs4)C3)c2[C@H]1CN1CCCC1=O", "note": "[Example 26, (1S,2R)-N-methyl-2-((S)-1-((2-oxopyrrolidin-1-yl)methyl)-8-(((S)-1-(thiazole-5-carbonyl)pyrrolidin-3-yl)oxy)-1,2,3,4-tetrahydroisoquinoline-2-carbonyl)cyclohexane-1-carboxamide]", "IC50": 61}
    ]}
  ]
}
